Laboratory results as given in PubChem BioAssay AID2060890 (Molecular Pharmacology Branch, DTP, NCI, 2025).
One block for each compound: values may come before it.

Test system: LG0703-F948-PDC complex spheroid viability
Test: Anticancer human tumor LG0703-F948-PDC patient-derived lung adenocarcinoma cell line growth inhibition [RAS]
Conditions: for IC50: curve of first compound; for viability, T/C: stronger effect = lower value
Procedure, shortened: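 Agents were tested in combination matrices in half-log decrements from a top concentration at or near clinical Cmax (10 microM if undetermined). Targets were multi-cell spheroids of tumour lines plus HUVEC and MSC stromal cells.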
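Note: spheroids exposed to agents for 7 days.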
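Throughout, for viability, T/C: 100% = DMSO vehicle wells.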

IC50 (second compound 0.00316 µM): 577 nM
IC50 (second compound 0.01 µM): 656 nM
IC50 (second compound 0.0316 µM): 625 nM
IC50 (second compound 0.1 µM): 650 nM
IC50 (second compound 0.316 µM): 640 nM
IC50 (second compound 1 µM): 696 nM
SMILES: CC(C)NCC(C(=O)N1CCN(c2ncnc3c2C(C)CC3O)CC1)c1ccc(Cl)cc1 (centres undefined) + C=CC(=O)N1CCN(c2nc(OCC3CCCN3C)nc3c(F)c(-c4nc(N)cc(C)c4C(F)(F)F)c(Cl)cc23)C(C)C1
viability, T/C (second compound 0.00316 µM, first compound 0.0316 µM): 97%
viability, T/C (second compound 0.00316 µM, first compound 0.1 µM): 77.6%
viability, T/C (second compound 0.00316 µM, first compound 0.316 µM): 56.9%
viability, T/C (second compound 0.00316 µM, first compound 1 µM): 44.7%
viability, T/C (second compound 0.00316 µM, first compound 3.16 µM): 28.1%
viability, T/C (second compound 0.00316 µM, first compound 10 µM): 21.6%
viability, T/C (second compound 0.01 µM, first compound 0.0316 µM): 96.4%
viability, T/C (second compound 0.01 µM, first compound 0.1 µM): 78.8%
viability, T/C (second compound 0.01 µM, first compound 0.316 µM): 56.2%
viability, T/C (second compound 0.01 µM, first compound 1 µM): 46.5%
viability, T/C (second compound 0.01 µM, first compound 3.16 µM): 31.6%
viability, T/C (second compound 0.01 µM, first compound 10 µM): 20.8%
viability, T/C (second compound 0.0316 µM, first compound 0.0316 µM): 100%
viability, T/C (second compound 0.0316 µM, first compound 0.1 µM): 79.9%
viability, T/C (second compound 0.0316 µM, first compound 0.316 µM): 61.9%
viability, T/C (second compound 0.0316 µM, first compound 1 µM): 40.4%
viability, T/C (second compound 0.0316 µM, first compound 3.16 µM): 33.3%
viability, T/C (second compound 0.0316 µM, first compound 10 µM): 23.3%
viability, T/C (second compound 0.1 µM, first compound 0.0316 µM): 87.3%
viability, T/C (second compound 0.1 µM, first compound 0.1 µM): 74.6%
viability, T/C (second compound 0.1 µM, first compound 0.316 µM): 62%
viability, T/C (second compound 0.1 µM, first compound 1 µM): 42%
viability, T/C (second compound 0.1 µM, first compound 3.16 µM): 31.6%
viability, T/C (second compound 0.1 µM, first compound 10 µM): 21.2%
viability, T/C (second compound 0.316 µM, first compound 0.0316 µM): 103%
viability, T/C (second compound 0.316 µM, first compound 0.1 µM): 82%
viability, T/C (second compound 0.316 µM, first compound 0.316 µM): 58.5%
viability, T/C (second compound 0.316 µM, first compound 1 µM): 44.2%
viability, T/C (second compound 0.316 µM, first compound 3.16 µM): 29.8%
viability, T/C (second compound 0.316 µM, first compound 10 µM): 18.5%
viability, T/C (second compound 1 µM, first compound 0.0316 µM): 104%
viability, T/C (second compound 1 µM, first compound 0.1 µM): 97%
viability, T/C (second compound 1 µM, first compound 0.316 µM): 61.4%
viability, T/C (second compound 1 µM, first compound 1 µM): 44.9%
viability, T/C (second compound 1 µM, first compound 3.16 µM): 25.8%
viability, T/C (second compound 1 µM, first compound 10 µM): 15.1%

IC50 (second compound 0.000949 µM): 7.67 nM
IC50 (second compound 0.003 µM): 9.28 nM
IC50 (second compound 0.00949 µM): 7.52 nM
IC50 (second compound 0.03 µM): 6.69 nM
IC50 (second compound 0.0949 µM): < 3.16 nM
IC50 (second compound 0.3 µM): < 3.16 nM
SMILES: Nc1ccn(C2OC(CO)C(O)C2(F)F)c(=O)n1 (centres undefined) + CCn1c(-c2cccnc2C(C)OC)c2c3cc(ccc31)N1CCOC(CC(NC(=O)C(C(C)C)N(C)C(=O)C3(F)CCN(C(=O)C#CC(C)(C)N(C)C)CC3)C(=O)N3CCCC(N3)C(=O)OCC(C)(C)C2)C1
viability, T/C (second compound 0.000949 µM, first compound 0.00316 µM): 79.2%
viability, T/C (second compound 0.000949 µM, first compound 0.01 µM): 40.2%
viability, T/C (second compound 0.000949 µM, first compound 0.0316 µM): 36.9%
viability, T/C (second compound 0.000949 µM, first compound 0.1 µM): 32%
viability, T/C (second compound 0.000949 µM, first compound 0.316 µM): 32%
viability, T/C (second compound 0.000949 µM, first compound 1 µM): 30%
viability, T/C (second compound 0.003 µM, first compound 0.00316 µM): 76.2%
viability, T/C (second compound 0.003 µM, first compound 0.01 µM): 48.3%
viability, T/C (second compound 0.003 µM, first compound 0.0316 µM): 38.9%
viability, T/C (second compound 0.003 µM, first compound 0.1 µM): 29.8%
viability, T/C (second compound 0.003 µM, first compound 0.316 µM): 38.9%
viability, T/C (second compound 0.003 µM, first compound 1 µM): 31.3%
viability, T/C (second compound 0.00949 µM, first compound 0.00316 µM): 70.7%
viability, T/C (second compound 0.00949 µM, first compound 0.01 µM): 43.2%
viability, T/C (second compound 0.00949 µM, first compound 0.0316 µM): 38%
viability, T/C (second compound 0.00949 µM, first compound 0.1 µM): 36.9%
viability, T/C (second compound 0.00949 µM, first compound 0.316 µM): 43.9%
viability, T/C (second compound 0.00949 µM, first compound 1 µM): 30.9%
viability, T/C (second compound 0.03 µM, first compound 0.00316 µM): 66%
viability, T/C (second compound 0.03 µM, first compound 0.01 µM): 41.4%
viability, T/C (second compound 0.03 µM, first compound 0.0316 µM): 34%
viability, T/C (second compound 0.03 µM, first compound 0.1 µM): 30%
viability, T/C (second compound 0.03 µM, first compound 0.316 µM): 34.7%
viability, T/C (second compound 0.03 µM, first compound 1 µM): 28.9%
viability, T/C (second compound 0.0949 µM, first compound 0.00316 µM): 49.3%
viability, T/C (second compound 0.0949 µM, first compound 0.01 µM): 33.2%
viability, T/C (second compound 0.0949 µM, first compound 0.0316 µM): 26.7%
viability, T/C (second compound 0.0949 µM, first compound 0.1 µM): 30%
viability, T/C (second compound 0.0949 µM, first compound 0.316 µM): 27.8%
viability, T/C (second compound 0.0949 µM, first compound 1 µM): 22.2%
viability, T/C (second compound 0.3 µM, first compound 0.00316 µM): 31.7%
viability, T/C (second compound 0.3 µM, first compound 0.01 µM): 22.4%
viability, T/C (second compound 0.3 µM, first compound 0.0316 µM): 27.9%
viability, T/C (second compound 0.3 µM, first compound 0.1 µM): 27.2%
viability, T/C (second compound 0.3 µM, first compound 0.316 µM): 31.4%
viability, T/C (second compound 0.3 µM, first compound 1 µM): 19.4%
